Assay results as given in PubChem BioAssay AID248 (DTP/NCI, 2004).
Several values for one entry are separate records, joined by “and”; a condition that tells them apart may be missing. Equal entries are not always repeated. Inconclusive results and toxic doses are left out.

Tested on: L1210 leukemia ip in BDF1 mice, survival T/C
Assay: NCI In Vivo Anticancer Drug Screen. Data for tumor model L1210 Leukemia (intraperitoneal) in B6D2F1 (BDF1) mice
Details: endpoint: mean survival time, higher = longer survival
In short: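 Mice bearing the transplanted tumor received compound or vehicle. Survival of the treated group was divided by that of the vehicle-treated control group to give the ratio.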

[1] = dose: 100.0 mg/kg/injection, schedule: Q04DX002 (ip), vehicle: saline
[2] = dose: 200.0 mg/kg/injection, schedule: Q04DX002 (ip), vehicle: saline
[3] = dose: 400.0 mg/kg/injection, schedule: Q04DX002 (ip), vehicle: saline
[4] = dose: 25.0 mg/kg/injection, schedule: Q01DX009 (ip), vehicle: Klucel (hydroxypropylcellulose) (HPC)
[5] = dose: 50.0 mg/kg/injection, schedule: Q01DX009 (ip), vehicle: Klucel (hydroxypropylcellulose) (HPC)
[6] = dose: 100.0 mg/kg/injection, schedule: Q04DX003 (ip), vehicle: saline
[7] = dose: 50.0 mg/kg/injection, schedule: Q01DX009 (ip), vehicle: saline with Tween-80
[8] = dose: 100.0 mg/kg/injection, schedule: Q01DX009 (ip), vehicle: Klucel (hydroxypropylcellulose) (HPC)
[9] = dose: 100.0 mg/kg/injection, schedule: Q04DX003 (ip), vehicle: saline with Tween-80
[10] = dose: 200.0 mg/kg/injection, schedule: Q04DX003 (ip), vehicle: saline with Tween-80
[11] = dose: 400.0 mg/kg/injection, schedule: Q04DX003 (ip), vehicle: saline with Tween-80
[12] = dose: 100.0 mg/kg/injection, schedule: Q01DX009 (ip), vehicle: saline
[13] = dose: 200.0 mg/kg/injection, schedule: Q01DX009 (ip), vehicle: saline
[14] = dose: 200.0 mg/kg/injection, schedule: Q04DX003 (ip), vehicle: saline
[15] = dose: 400.0 mg/kg/injection, schedule: Q04DX003 (ip), vehicle: saline

`CC1=C(N)NN(O)C=C1` was tested, and the T/C [1] was 104 % of control, the T/C [2] was 116 % of control and the T/C [3] was 101 % of control.

With `O=C(O)C(CSC(c1ccccc1)(c1ccccc1)c1ccccc1)N=Cc1cccs1` (configuration not stated) the T/C (dose: 22.0 mg/kg/injection, schedule: Q01DX009 (ip), vehicle: saline) was 123 % of control, the T/C (dose: 66.0 mg/kg/injection, schedule: Q01DX009 (ip), vehicle: saline with Tween-80) was 109 % of control and the T/C (dose: 66.0 mg/kg/injection, schedule: Q01DX009 (ip), vehicle: saline) was 152 % of control and 214 % of control. For the same molecule, the T/C (dose: 150.0 mg/kg/injection, schedule: Q01DX009 (ip), vehicle: saline with Tween-80) was 98 % of control and the T/C (dose: 150.0 mg/kg/injection, schedule: Q01DX009 (ip), vehicle: saline) was 104 % of control.

For `CCCC(=O)N(C(=O)CCC)c1cc2c3c(c1)CCCN3CCC2`, the T/C (dose: 12.5 mg/kg/injection, schedule: Q04DX003 (ip), vehicle: Klucel (hydroxypropylcellulose) (HPC)) was 96 % of control, the T/C [4] was 95 % of control and the T/C (dose: 25.0 mg/kg/injection, schedule: Q04DX003 (ip), vehicle: Klucel (hydroxypropylcellulose) (HPC)) was 93 % of control. For the same molecule, the T/C [5] was 92 % of control, the T/C (dose: 50.0 mg/kg/injection, schedule: Q04DX003 (ip), vehicle: Klucel (hydroxypropylcellulose) (HPC)) was 95 % of control and the T/C [6] was 93 % of control.

`NCCNc1ncnc2c1ncn2C1OC(CO)C(O)C1O` (configuration not stated) was tested, and the T/C (dose: 6.25 mg/kg/injection, schedule: Q01DX009 (ip), vehicle: saline) was 115 % of control, the T/C (dose: 12.5 mg/kg/injection, schedule: Q01DX005 (ip), vehicle: saline) was 101 % of control and the T/C (dose: 12.5 mg/kg/injection, schedule: Q01DX009 (ip), vehicle: saline) was 111 % of control. The T/C (dose: 25.0 mg/kg/injection, schedule: Q01DX005 (ip), vehicle: saline) was 100 % of control, the T/C (dose: 25.0 mg/kg/injection, schedule: Q01DX009 (ip), vehicle: saline) was 117 % of control and the T/C (dose: 50.0 mg/kg/injection, schedule: Q01DX005 (ip), vehicle: saline) was 97 % of control. For the same molecule, the T/C (dose: 100.0 mg/kg/injection, schedule: Q01DX005 (ip), vehicle: saline) was 86 % of control.

With `O=S(=O)(Cl)c1ccc2cc3ccccc3cc2c1` the T/C [7] was 98 % of control, the T/C (dose: 100.0 mg/kg/injection, schedule: Q01DX009 (ip), vehicle: saline with Tween-80) was 96 % of control and the T/C (dose: 200.0 mg/kg/injection, schedule: Q01DX009 (ip), vehicle: saline with Tween-80) was 102 % of control.

In the case of `Cc1ccccc1/C=C1\CC(C)(C)c2ccccc2C1=O`, the T/C [8] is reported as 105 % of control, the T/C (dose: 100.0 mg/kg/injection, schedule: Q04DX003 (ip), vehicle: Klucel (hydroxypropylcellulose) (HPC)) is reported as 95 % of control and the T/C (dose: 200.0 mg/kg/injection, schedule: Q01DX009 (ip), vehicle: Klucel (hydroxypropylcellulose) (HPC)) is reported as 97 % of control. The T/C (dose: 200.0 mg/kg/injection, schedule: Q04DX003 (ip), vehicle: Klucel (hydroxypropylcellulose) (HPC)) was 95 % of control, the T/C (dose: 400.0 mg/kg/injection, schedule: Q01DX009 (ip), vehicle: Klucel (hydroxypropylcellulose) (HPC)) was 97 % of control and the T/C (dose: 400.0 mg/kg/injection, schedule: Q04DX003 (ip), vehicle: Klucel (hydroxypropylcellulose) (HPC)) was 97 % of control.

With `O=C(O)c1c[nH]c2c(ccc3ccccc32)c1=O` the T/C (dose: 100.0 mg/kg/injection, schedule: Q04DX002 (ip), vehicle: Klucel (hydroxypropylcellulose) (HPC)) was 103 % of control, the T/C (dose: 200.0 mg/kg/injection, schedule: Q04DX002 (ip), vehicle: Klucel (hydroxypropylcellulose) (HPC)) was 122 % of control and the T/C (dose: 400.0 mg/kg/injection, schedule: Q04DX002 (ip), vehicle: Klucel (hydroxypropylcellulose) (HPC)) was 92 % of control.

For `CCCCCCCCCCCCCCCCCCNC(=O)C[N+](C)(C)Cc1ccccc1`, the T/C (dose: 3.13 mg/kg/injection, schedule: Q01DX009 (ip), vehicle: saline with Tween-80) was 93 % of control, the T/C (dose: 6.25 mg/kg/injection, schedule: Q01DX009 (ip), vehicle: saline with Tween-80) was 98 % of control and the T/C (dose: 12.5 mg/kg/injection, schedule: Q01DX009 (ip), vehicle: saline with Tween-80) was 89 % of control.

For `Clc1ccc(Cl)c(Nc2ccnc(SCc3ccccc3)n2)c1`, the T/C (dose: 100.0 mg/kg/injection, schedule: Q01DX Z (ip), vehicle: methylcellulose (MC)) was 92 % of control and the T/C (dose: 200.0 mg/kg/injection, schedule: Q01DX Z (ip), vehicle: methylcellulose (MC)) was 88 % of control.

In the case of `C/C(=N/N)c1ccccc1O`, the T/C (dose: 25.6 mg/kg/injection, schedule: Q04DX002 (ip), vehicle: saline) is reported as 88 % of control and the T/C (dose: 160.0 mg/kg/injection, schedule: Q04DX002 (ip), vehicle: saline) is reported as 92 % of control.

`COc1ccc(Br)cc1CCC=O` was tested, and the T/C (dose: 100.0 mg/kg/injection, schedule: Q01DX001 (ip), vehicle: carboxymethylcellulose (CMC)) was 100 % of control, the T/C (dose: 200.0 mg/kg/injection, schedule: Q01DX001 (ip), vehicle: carboxymethylcellulose (CMC)) was 100 % of control and the T/C (dose: 400.0 mg/kg/injection, schedule: Q01DX001 (ip), vehicle: carboxymethylcellulose (CMC)) was 100 % of control.

In the case of `COc1ccc(C=NC(C)(C)CO)cc1OC`, the T/C (dose: 100.0 mg/kg/injection, schedule: Q01DX001 (ip), vehicle: steriod suspending solution) is reported as 108 % of control, the T/C (dose: 200.0 mg/kg/injection, schedule: Q01DX001 (ip), vehicle: steriod suspending solution) is reported as 103 % of control and the T/C (dose: 400.0 mg/kg/injection, schedule: Q01DX001 (ip), vehicle: steriod suspending solution) is reported as 101 % of control.

In the case of `CN(C)c1ccc(/C=N/O)cc1`, the T/C [1] is reported as 103 % of control, the T/C [2] is reported as 95 % of control and the T/C [3] is reported as 95 % of control.

For `COc1ccc([N+](=O)[O-])cn1`, the T/C [9] was 98 % of control, the T/C [10] was 91 % of control and the T/C [11] was 88 % of control.

With `NN(C(=O)c1ccccc1)C1CCCCC1` the T/C [9] was 104 % of control, the T/C [10] was 96 % of control and the T/C [11] was 96 % of control.

With `NC1=C(Cl)C(=O)c2ccccc2C1=O` the T/C (dose: 25.0 mg/kg/injection, schedule: Q04DX003 (ip), vehicle: saline with Tween-80) was 100 % of control, the T/C (dose: 50.0 mg/kg/injection, schedule: Q04DX003 (ip), vehicle: saline with Tween-80) was 101 % of control and the T/C [9] was 90 % of control.

For `Cc1ccc(NC(=O)NCC2(C)CC(NC(=O)Nc3ccc(C)cc3)CC(C)(C)C2)cc1` (configuration not stated), the T/C [7] was 87 % of control, the T/C [9] was 91 % of control and the T/C [10] was 91 % of control.

`CC(C)C(=O)OCC1OC(n2cnc3c(=S)nc[nH]c32)C(OC(=O)C(C)C)C1OC(=O)C(C)C` (configuration not stated) was tested, and the T/C (dose: 2.5 mg/kg/injection, schedule: Q01DX Z (oral), vehicle: carboxymethylcellulose (CMC)) was 101 % of control, the T/C (dose: 5.0 mg/kg/injection, schedule: Q01DX Z (oral), vehicle: carboxymethylcellulose (CMC)) was 95 % of control and the T/C (dose: 10.0 mg/kg/injection, schedule: Q01DX Z (oral), vehicle: carboxymethylcellulose (CMC)) was 97 % of control. The T/C (dose: 20.0 mg/kg/injection, schedule: Q01DX Z (oral), vehicle: carboxymethylcellulose (CMC)) was 100 % of control.

For `CC(N(N=O)c1ccccc1)S(=O)(=O)O` (configuration not stated), the T/C (dose: 100.0 mg/kg/injection, schedule: Q01DX001 (ip), vehicle: saline) was 104 % of control, the T/C [12] was 92 % of control and the T/C (dose: 200.0 mg/kg/injection, schedule: Q01DX001 (ip), vehicle: saline) was 96 % of control. The T/C [13] was 99 % of control and the T/C (dose: 400.0 mg/kg/injection, schedule: Q01DX001 (ip), vehicle: saline) was 98 % of control.

For `NC(=O)CC(N)c1nn[nH]n1` (configuration not stated), the T/C [12] was 89 % of control, the T/C [6] was 97 % of control and the T/C [13] was 98 % of control. For the same molecule, the T/C [14] was 100 % of control, the T/C (dose: 400.0 mg/kg/injection, schedule: Q01DX009 (ip), vehicle: saline) was 102 % of control and the T/C [15] was 103 % of control.

For `O=C(O)/C(=C\c1ccccc1)c1ccccc1`, the T/C [9] was 100 % of control, the T/C [10] was 94 % of control and the T/C [11] was 100 % of control.

`BrC1=C(Br)CCCC1` was tested, and the T/C [6] was 91 % of control, the T/C [14] was 91 % of control and the T/C [15] was 93 % of control.

`O=[N+]([O-])c1ccc(/C=N/N2CCOCC2)s1` was tested, and the T/C [6] was 102 % of control, the T/C [14] was 97 % of control and the T/C [15] was 102 % of control.

In the case of `CCCCCN(CCCCC)CC(O)c1cc2c(c3ccccc13)CCCC2` (configuration not stated), the T/C [4] is reported as 87 % of control, the T/C [5] is reported as 93 % of control and the T/C [8] is reported as 90 % of control.

With `C/C(=N/N=C(N)N)C(F)(F)F` the T/C (dose: 15.0 mg/kg/injection, schedule: Q01DX Z (ip), vehicle: saline) was 104 % of control, the T/C (dose: 15.0 mg/kg/injection, schedule: Q01DX Z (oral), vehicle: saline) was 108 % of control and the T/C (dose: 30.0 mg/kg/injection, schedule: Q01DX Z (ip), vehicle: saline) was 87 % of control. For the same molecule, the T/C (dose: 30.0 mg/kg/injection, schedule: Q01DX Z (oral), vehicle: saline) was 106 % of control.
